# In patent publication US12157730B2, “Heteroaryl derivative, method for producing same, and pharmaceutical composition comprising same as effective component” (VORONOI INC., priority 2019, dated 2024):
# Biological target: T1, Ba/F3 cell EGFR Exon20 ins NPH (Homo sapiens, UniProt P00533, INS773NPH)
# T1 construct: expressed in transfected cells; host or cells: Ba/F3
# Assay: Ba/F3 cell proliferation suppression, EGFR Exon20 ins NPH
# Format: cell-based
# Conditions: GI50 class; Ba/F3 cell line with NPH inserted at Exon20 of EGFR; 72 hours
# Procedure, shortened: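 After 72 h compound exposure (twelve 3-fold steps, 0.3 nM–50 um final), live cells were measured by CellTiter-Glo luminescence and growth expressed as % of control to derive GI50. Cells were seeded at 3000–5000 per well a day earlier; Ba/F3 medium contained IL-3; three repeats.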
row,SMILES,Ba/F3 (NPH) Activity
1,"C=CC(=O)Nc1cc(Nc2cc(N3OCC[C@@H]3c3cccc(Cl)c3F)ncn2)c(OC)cc1N1CCC(N2C[C@H](C)N(C3CC3)C[C@@H]2C)CC1 [Example 128, N-(5-((6-((R)-3-(3-chloro-2-fluorophenyl)isoxazolidine-2-yl)pyrimidine-4-yl)amino)-2-(4-((2S,5S)-4-cyclopropyl-2,5-dimethylpiperazine-1-yl)piperidine-1-yl)-4-methoxyphenyl) acrylamide]",A (GI50 < 50 nM)
2,"C=CC(=O)Nc1cc(Nc2cc(N3OCC[C@@H]3c3cc(F)ccc3F)ncn2)c(OC)cc1N1CCC(N2CCCN(C3CC3)CC2)CC1 [compound 829, N-(2-(4-(4-cyclopropyl-1,4-diazepane-1-yl)piperidine-1-yl)-5-((6-((R)-3-(2,5-difluorophenyl)isoxazolidine-2-yl)pyrimidine-4-yl)amino)-4-methoxyphenyl) acrylamide]",A (GI50 < 50 nM)
3,"C=CC(=O)Nc1cc(Nc2cc(N3OCC[C@@H]3Cc3cccc(Cl)c3Cl)ncn2)c(OC)cc1N(C)CCN(C)C [compound 982, N-(5-((6-((S)-3-(2,3-dichlorobenzyl)isoxazolidine-2-yl)pyrimidine-4-yl)amino)-2-((2-(dimethylamino)ethyl)(methyl)amino)-4-methoxyphenyl) acrylamide]",A (GI50 < 50 nM)
4,"C=CC(=O)Nc1cc(Nc2cc(N3OCC[C@@H]3c3ccc(F)c(F)c3F)ncn2)c(OC)cc1N1CCC(N2CCN(C3CCC3)CC2)CC1 [Example 187, N-(2-(4-(4-cyclobutylpiperazine-1-yl)piperidine-1-yl)-4-methoxy-5-((6-((R)-3-(2,3,4-trifluorophenyl)isoxazolidine-2-yl)pyrimidine-4-yl)amino)phenyl)acrylamide]",A (GI50 < 50 nM)
5,"C=CC(=O)Nc1cc(Nc2cc(N3OCC[C@@H]3c3cc(F)cc(F)c3)ncn2)c(OC)cc1N1CCC(N2CCN(C)C[C@@H]2C)CC1 [compound 762, N-(5-((6-((R)-3-(3,5-difluorophenyl)isoxazolidine-2-yl)pyrimidine-4-yl)amino)-2-(4-((S)-2,4-dimethylpiperazine-1-yl)piperidine-1-yl)-4-methoxyphenyl) acrylamide]",A (GI50 < 50 nM)
6,"C=CC(=O)Nc1cc(Nc2cc(N3OCC[C@@H]3c3ccc(F)cc3F)ncn2)c(OC)cc1N1CCN(C2CC2)C[C@@H]1C [compound 474, N-(2-((S)-4-cyclopropyl-2-methylpiperazine-(2,4-1-yl)-5-((6-((R)-3-difluorophenyl)isoxazolidine-2-yl)pyrimidine-4-yl)amino)-4-methoxyphenyl) acrylamide]",A (GI50 < 50 nM)
7,"C=CC(=O)Nc1cc(Nc2cc(N3OCC[C@@H]3c3cccc(F)c3)ncn2)c(OC)cc1N1CCOCC1 [compound 840, N-(5-((6-((R)-3-(3-fluorophenyl)isoxazolidine-2-yl)pyrimidine-4-yl)amino)-4-methoxy-2-morpholinophenyl) acrylamide]",A (GI50 < 50 nM)
8,"C=CC(=O)Nc1cc(Nc2cc(N3OCC[C@@H]3c3cccc(Cl)c3Cl)ncn2)c(OC)cc1N1CC[C@@H](N(C)C)C1 [compound 526, N-(5-((6-((R)-3-(2,3-dichlorophenyl)isoxazolidine-2-yl)pyrimidine-4-yl)amino)-2-((R)-3-(dimethylamino)pyrolidine-1-yl)-4-methoxyphenyl) acrylamide]",A (GI50 < 50 nM)
9,"C=CC(=O)Nc1cc(Nc2cc(N3OCC[C@@H]3c3cc(F)ccc3F)ncn2)c(OC)cc1N(C)CCN(C)C [compound 882, N-(5-((6-((R)-3-(2,5-difluorophenyl)isoxazolidine-2-yl)pyrimidine-4-yl)amino)-2-((2-(dimethylamino)ethyl)(methyl)amino)-4-methoxyphenyl) acrylamide]",A (GI50 < 50 nM)
10,"C=CC(=O)Nc1cc(Nc2cc(N3OCC[C@@H]3c3ccc(F)c(F)c3F)ncn2)c(OC)cc1N1CC[C@@H](N2CCOCC2)C1 [compound 623, N-(4-methoxy-2-((R)-3-morpholinopyrolidine-1-yl)-5-((6-((R)-3-(2,3,4-trifluorophenyl)isoxazolidine-2-yl)pyrimidine-4-yl)amino)phenyl)acrylamide]",C (500 nM ≤ GI50 < 5000 nM)
11,"C=CC(=O)Nc1cc(Nc2cc(N3OCC[C@@H]3c3ccc(F)cc3F)ncn2)c(OC)cc1N1CCC(N2CCC(N(C)C)CC2)CC1 [compound 478, N-(5-((6-((R)-3-(2,4-difluorophenyl)isoxazolidine-2-yl)pyrimidine-4-yl)amino)-2-(4-(dimethylamino)-[1,4'-bipiperidine]-1'-yl)-4-methoxyphenyl) acrylamide]",A (GI50 < 50 nM)
12,"C=CC(=O)Nc1cc(Nc2cc(N3OCC[C@@H]3c3ccc(F)cc3F)ncn2)c(OC)cc1N1C[C@@H]2C[C@H]1CN2CC [compound 354, N-(5-((6-((R)-3-(2,4-difluorophenyl)isoxazolidine-2-yl)pyrimidine-4-yl)amino)-2-((1S,4S)-5-ethyl-2,5-diazabicyclo[2.2.1]heptane-2-yl)-4-methoxyphenyl) acrylamide]",A (GI50 < 50 nM)
13,"C=CC(=O)Nc1cc(Nc2cc(N3OCC[C@@H]3c3cccc(C)c3F)ncn2)c(OC)cc1N1CCC(N2CCN(C3CC3)CC2)CC1 [Example 140, N-(2-(4-(4-cyclopropylpiperazine-1-yl)piperidine-1-yl)-5-((6-((R)-3-(2-fluoro-3-methylphenyl)isoxazolidine-2-yl)pyrimidine-4-yl)amino)-4-methoxyphenyl) acrylamide]",A (GI50 < 50 nM)
14,"C=CC(=O)Nc1cc(Nc2cc(N3OCC[C@@H]3c3ccc(Cl)c(F)c3)ncn2)c(OC)cc1N1CCN(C2CC2)CC1 [compound 364, N-(5-((6-((R)-3-(4-chloro-3-fluorophenyl)isoxazolidine-2-yl)pyrimidine-4-yl)amino)-2-(4-cyclopropylpiperazine-1-yl)-4-methoxyphenyl) acrylamide]",A (GI50 < 50 nM)
15,"C=CC(=O)Nc1cc(Nc2cc(N3OCC[C@@H]3c3cccc(C#N)c3)ncn2)c(OC)cc1N1CCC(N2CC[C@H](N(C)C)C2)CC1 [compound 435, N-(5-((6-((R)-3-(3-cyanophenyl)isoxazolidine-2-yl)pyrimidine-4-yl)amino)-2-(4-((S)-3-(dimethylamino)pyrolidine-1-yl)piperidine-1-yl)-4-methoxyphenyl) acrylamide]",B (50 nM ≤ GI50 < 500 nM)
16,"C=CC(=O)Nc1cc(Nc2cc(N3OCC[C@@H]3c3ccc(F)c(Cl)c3F)ncn2)c(OC)cc1N1CCN(CC)CC1 [compound 600, N-(5-((6-((R)-3-(3-chloro-2,4-difluorophenyl)isoxazolidine-2-yl)pyrimidine-4-yl)amino)-2-(4-ethylpiperazine1-yl)-4-methoxyphenyl) acrylamide]",A (GI50 < 50 nM)
17,"C=CC(=O)Nc1cc(Nc2cc(N3OCC[C@@H]3c3cccc(F)c3)ncn2)c(OC)cc1N1CCN(CC)CC1 [Example 246, N-(2-(4-ethylpiperazine-1-yl)-5-((6-((R)-3-(3-fluorophenyl)isoxazolidine-2-yl)pyrimidine-4-yl)amino)-4-methoxyphenyl) acrylamide]",A (GI50 < 50 nM)
18,"C=CC(=O)Nc1cc(Nc2cc(N3OCC[C@@H]3c3ccc(Cl)c(F)c3)ncn2)c(OC)cc1N1CCC(N2CC[C@@H](N(C)C)C2)CC1 [compound 800, N-(5-((6-((R)-3-(4-chloro-3-fluorophenyl)isoxazolidine-2-yl)pyrimidine-4-yl)amino)-2-(4-((R)-3-(dimethylamino)pyrolidine-1-yl)piperidine-1-yl)-4-methoxyphenyl) acrylamide]",A (GI50 < 50 nM)
19,"C=CC(=O)Nc1cc(Nc2cc(N3OCC[C@@H]3c3cccc(C(F)(F)F)c3)ncn2)c(OC)cc1N1CCN(C2CC2)CC1 [compound 940, N-(2-(4-cyclopropylpiperazine-1-yl)-4-methoxy-5-((6-((R)-3-(3-(trifluoromethyl)pheyyl)isoxazolidine-2-yl)pyrimidine-4-yl)amino)phenyl) acrylamide]",B (50 nM ≤ GI50 < 500 nM)
20,"C=CC(=O)Nc1cc(Nc2cc(N3OCC[C@@H]3c3cccc(C#N)c3)ncn2)c(OC)cc1N1CC[C@@H](N(C)C)C1 [compound 395, N-(5-((6-((R)-3-(3-cyanophenyl)isoxazolidine-2-yl)pyrimidine-4-yl)amino)-2-((R)-3-(dimethylamino)pyrolidine-1-yl)-4-methoxyphenyl) acrylamide]",B (50 nM ≤ GI50 < 500 nM)
21,"C=CC(=O)Nc1cc(Nc2cc(N3OCC[C@@H]3c3ccc(Cl)cc3)ncn2)c(OC)cc1N1CCC(N2CC[C@H](N(C)C)C2)CC1 [compound 784, N-(5-((6-((R)-3-(4-chlorophenyl)isoxazolidine-2-yl)pyrimidine-4-yl)amino)-2-(4-((S)-3-(dimethylamino)pyrolidine-1-yl)piperidine-1-yl)-4-methoxyphenyl) acrylamide]",A (GI50 < 50 nM)
22,"C=CC(=O)Nc1cc(Nc2cc(N3OCC[C@@H]3c3cccc(C#N)c3)ncn2)c(OC)cc1N1CCC(N2CCC(F)(F)CC2)CC1 [compound 433, N-(5-((6-((R)-3-(3-cyanophenyl)isoxazolidine-2-yl)pyrimidine-4-yl)amino)-2-(4,4-difluoro-[1,4'-bipiperidine]-1'-yl)-4-methoxyphenyl) acrylamide]",A (GI50 < 50 nM)
23,"C=CC(=O)Nc1cc(Nc2cc(N3OCC[C@@H]3c3cccc(C#N)c3)ncn2)c(OC)cc1N1CCC(N2CCN(C3CCC3)CC2)CC1 [Example 183, N-(5-((6-((R)-3-(3-cyanophenyl)isoxazolidine-2-yl)pyrimidine-4-yl)amino)-2-(4-(4-cyclobutylpiperazine-1-yl)piperidine-1-yl)-4-methoxyphenyl) acrylamide]",A (GI50 < 50 nM)
